From patent US5677342A, “Phenoxy acetic acids as aldose reductase inhibitors and antihyperglycemic agents” (American Home Products Corporation, priority 1996, dated 1997)

Key:
[1] = target: T1, bovine lens aldose reductase (Bos taurus, UniProt P16116); assay: In vitro Inhibition of Aldose Reductase in the Bovine Lens; format: biochemical; conditions: DL-glyceraldehyde as substrate; for inhibition at 0.04 µM: dose 4 × 10^-8 M; for inhibition at 0.1 µM: dose 10^-7 M
T1 construct: preparation of the enzyme from bovine lens; from tissue; host or cells: bovine lens
Experimental: I. In vitro Inhibition of Aldose Reductase in the Bovine Lens
The aldose reductase inhibiting effects of the compounds of formula I were tested by employing an in vitro testing procedure similar to that described by S. Hayman and J. H. Kinoshita, J. Biol. Chem., 240, 877 (1965) wherein the abilitty of the invention compounds to inhibit bovine lens aldose reductase with DL-glyceraldehyde as the substrate was determined. In the present case the procedure of Hayman and Kinoshita was modified in that the final chromatography step was omitted in the preparation of the enzyme from bovine lens.

[2] = system: diabetic db/db mice; assay: Determination of Blood Glucose Lowering in Diabetic db/db Mice; format: in vivo, male diabetic db/db (C57BL/KsJ) mice; conditions: p.o.; for plasma glucose lowering compared with ciglitazone / % Change glucose: 100 mg/kg; for plasma glucose lowering compared with ciglitazone: in words; for % Change glucose: plasma glucose Day 4 (mean of 2 and 4 hr samples) vs Day 1 baseline
Experimental: 2. Determination of Blood Glucose Lowering in Diabetic db/db Mice. On the morning of Day 1, 35 mice [male diabetic db/db (C57BL/KsJ) mice (Jackson Laboratories), 2-7 months of age and 50-70 g] were fasted for 4 hours, weighed and a baseline blood sample (15-30 μl) was collected from the tail-tip of each mouse without anesthesia, and placed directly into a fluoride-containing tube, mixed and maintained on ice. Food was then returned to the mice. The plasma was separated and levels of glucose in plasma determined by the Abbott VP Analyzer. Because of the variable plasma glucose levels of the db/db mice, 5 mice having the most extreme (i.e., highest or lowest) plasma glucose levels were excluded and the remaining 30 mice were randomly assigned into 7 groups of equivalent mean plasma glucose levels (N=6 for vehicle and N=4 for each drug group). On the afternoon of Days 1, 2 and 3, the vehicle, control or test drugs were administered (p.o.) to the ad libitum fed mice. On the morning of Day 4, the mice were weighed and food removed, but water was available ad libitum. Three hours later, a blood sample was collected and then the mice were given the fourth administration of drug or vehicle. Blood samples were collected again from the unanesthetized mice at 2 and 4 hours after drug administration. The plasma was separated and levels of glucose in plasma was determined by the Abbott VP Analyzer. For each mouse, the percent change of its plasma glucose level on Day 4 (mean of the 2 and 4 hr samples) from respective level before drug administration (Day 1 baseline sample) is determined as follows: [formula] Analysis of variance followed by Dunnett's multiple comparison (one-sided) will be used to estimate the 'degree of statistical significance of the difference between the vehicle control group and the individual drug-treated groups. A drug will be considered active, at the specific dosage administered, if the difference of the plasma glucose level has a p<0.05.

[3] = system: ob/ob mice; assay: Determination of Blood Glucose Lowering Effect in ob/ob mice; format: in vivo, ob/ob mice (C57B1/6J); conditions: 100 mg/kg, p.o.
Experimental: 3. Determination of Blood Glucose Lowering Effect in ob/ob mice
Male or female ob/ob mice (C57B1/6J), ages 2 to 5 months (10 to 65 g), of a similar age are randomized according to plasma glucose into 4 groups of 10 mice. The mice are housed 5 per cage and are maintained on normal rodent chow with water ad libitum. The mice receive test compound daily. The test compound is suspended in 0.5 mL of 0.5% methyl cellulose and is administered by gavage (dissolved in drinking water) or admixed in the diet. The dose of compound given ranges from 2.5 to 200 mg/kg/day. Body weight of fed animals is measured at the beginning of each week and doses for the entire week are calculated using this weight and are expressed in terms of the active moiety of the compound. Control mice receive vehicle only.
On the morning of Days 4, 7 or 14 two drops of blood (approximately 50 μl) are collected into sodium fluoride containing tubes either from the tail vein or after decapitation. […] The plasma is isolated by centrifugation and the concentration of glucose is measured enzymatically on an Abbott V. P. Analyzer and the plasma concentration of insulin is determined by radioimmunoassay (Heding, 1972). For each mouse, the percentage change in plasma glucose on Day 4, 7 or 14 is calculated relative to the mean plasma glucose of the vehicle treated mice. […]

Compound: O=Cc1ccc(OCC(=O)O)c(Cc2ccc3c(Br)cccc3c2)c1O [Example 5, [2-(5-bromo-naphthalen-2-ylmethyl)-4-formyl-3-hydroxy-phenoxy]-acetic acid]
- inhibition at 0.04 µM [1]: 84%

Compound: O=Cc1ccc(OCC(=O)O)c(Cc2ccc3ccccc3c2Br)c1O [Example 6, [2-(1-bromo-naphthalen-2-ylmethyl)-4-formyl-3-hydroxy-phenoxy]-acetic acid]
- inhibition at 0.04 µM [1]: 78%

Compound: O=Cc1ccc(OCC(=O)O)c(Cc2ccc3c(Cl)cccc3c2)c1O [Example 4, [2-(5-chloro-naphthalen-2-ylmethyl)-4-formyl-3-hydroxy-phenoxy]-acetic acid]
- inhibition at 0.04 µM [1]: 78%

Compound: Cc1cc(OCC(=O)O)c(Cc2ccc3c(Cl)cccc3c2)c(O)c1C=O [Example 9, [2-(5-chloro-naphthalen-2-ylmethyl)-4-formyl-3-hydroxy-5-methyl-phenoxy]-acetic acid]
- inhibition at 0.04 µM [1]: 89%

Compound: COc1c(C=O)ccc(OCC(=O)O)c1Cc1ccc2c(Cl)cccc2c1 [Example 7, [2-(5-chloro-naphthalen-2-ylmethyl)-4-formyl-3-methoxy-phenoxy]-acetic acid]
- inhibition at 0.04 µM [1]: 83%

Compound: O=Cc1ccc(OCC(=O)O)c(Cc2ccc3ccccc3c2)c1O [Example 2, (4-formyl-3-hydroxy-2-naphthalen-2-ylmethyl-phenoxy)-acetic acid]
- inhibition at 0.1 µM [1]: 34%
- plasma glucose lowering compared with ciglitazone [2]: comparable with the results for ciglitazone
- % Change glucose [2]: -23%

Compound: COc1cc(OCC(=O)O)c(Cc2ccc3c(Cl)cccc3c2)c(O)c1C=O [Example 8, [2-(5-chloro-naphthalen-2-ylmethyl)-4-formyl-3-hydroxy-5-methoxy-phenoxy]-acetic acid]
- inhibition at 0.04 µM [1]: 81%

Compound: CC1(COc2ccc(CC3SC(=O)NC3=O)cc2)CCCCC1 (stereo not drawn) [ciglitazone, reference compound]
- decrease in plasma glucose levels (average) ([2]; positive control, 100 mg/kg/day × 4 days, average): 26%
- decrease in plasma glucose levels ([2]; positive control, 100 mg/kg/day × 4 days, range): 18 to 34%

Compound: O=Cc1cc(Cl)c(OCC(=O)O)c(Cc2ccc3c(Cl)cccc3c2)c1O [Example 10, [6-chloro-2-(5-chloro-naphthalen-2-ylmethyl)-4-formyl-3-hydroxy-phenoxy]-acetic acid]
- inhibition at 0.1 µM [1]: 36%

Compound: Cc1c(Cl)c(OCC(=O)O)c(Cc2ccc3c(Cl)cccc3c2)c(O)c1C=O [Example 1, [2-chloro-6-(5-chloro-naphthalen-2-ylmethyl)-4-formyl-5-hydroxy-3-methyl-phenoxy]-acetic acid]
- inhibition at 0.04 µM [1]: 49%
- plasma glucose lowering compared with ciglitazone [2]: comparable with the results for ciglitazone
- % Change glucose [2]: -19%
- % Change glucose ([3]; plasma glucose on Day 4, 7 or 14 relative to vehicle mean): -24%
- % Change insulin ([3]; plasma insulin by radioimmunoassay, Day 4, 7 or 14): -38%

Compound: O=Cc1ccc(OCC(=O)O)c(Cc2cccc3ccccc23)c1O [Example 3, (4-formyl-3-hydroxy-2-naphthalen-1-ylmethyl-phenoxy)-acetic acid]
- inhibition at 1 µM ([1]; dose 10^-6 M): 53%
